*1 amine or outer side, *2 acyl side, *3 side chain or, on linkers, in order; H or OH if unused. Where a SMILES comes first, the peptide text is derived from it. Bridges are numbered along the chain shown (N, C = ends). [ ]: non-standard residue; d: D form. The star is where a group is joined. TBMB = c1c(C[*:1])cc(C[*:3])cc1C[*:2]; NHDecyl = CCCCCCCCCCN*
System: E. faecium E980
Assay: UDP-MurNAc-pentapeptide accumulation assay
Format: cell-based, Enterococcus faecium
Settings: E. faecium E980, peptides at 10x MIC, 30 min, chloramphenicol 130 µg/ml pre-treatment, LCMS; triplicate measurements
Protocol: We next examined the effect of the optimized P8-D-(S6R, R15A)-C10 lipopeptide on cell wall biosynthesis in live bacteria. Specifically, we employed an assay where the accumulation of the soluble intracellular lipid II precursor UDP-MurNAc-pentapeptide is measured in response to antibiotic administration. Antibiotics known to interfere with cell wall biosynthesis by sequestration of lipid II (i.e. vancomycin) can lead to UDP-MurNAc-pentapeptide accumulation in the cytosol which can then be extracted and assessed by chromatographic means.[18],[33] […] The effect of the lipopeptides on bacterial cell morphology was further investigated using scanning electron microscopy. To this end, VRE 155 cells were imaged after exposure to either P8-D-(S6R, R15A)-C10 or nisin at 2× the MIC.
Section 4 Biological and biochemical experiments
4.1 Minimum inhibitory concentration assay
MIC values were determined by using the broth microdilution method. […]
determining the MICs of the lipidated peptides, the lipopeptides were first dissolved in DMSO and diluted with TSB so that the peptide concentration was 128 µg/ml and the DMSO concentration was 4%. After inoculation the highest peptide concentration evaluated was 64 µg/ml and the DMSO concentration was 2%. […]
Hemolysis was determined by measuring the absorption at 414 nm to measure the amount of free […]

SMILES | Accumulation of UDP-MurNAc-pentapeptide
CCCCCCCCCCNC(=O)CNC(=O)[C@H]1CSCc2cc3cc(c2)CSC[C@@H](NC(=O)[C@@H](CC(C)C)NC(=O)[C@@H](CC(C)C)NC(=O)[C@@H](CCCNC(=N)N)NC(=O)[C@@H](CCC(N)=O)NC(=O)[C@@H](CC(C)C)NC(=O)[C@@H](CC(C)C)NC(=O)[C@H](NC(=O)[C@@H](C)N)CSC3)C(=O)N2CCC[C@@H]2C(=O)N[C@H](Cc2ccc(O)cc2)C(=O)N[C@H](CO)C(=O)N[C@H]([C@H](C)O)C(=O)N[C@H](Cc2c[nH]cn2)C(=O)N[C@H](C)C(=O)N1 [P8-D-(S6R, R15A)-C10] (H-[dA][dC][dL][dL][dQ][dR][dL][dL][dC][dP][dY][dS][dT][dH][dA][dC]G-NHDecyl; linker 2-9-16 via TBMB; N-terminus assumed) | significant accumulation
CCCCCCCCCCNC(=O)CNC(=O)[C@@H]1CSCc2cc3cc(c2)CSC[C@H](NC(=O)[C@H](CC(C)C)NC(=O)[C@H](CC(C)C)NC(=O)[C@H](CCCNC(=N)N)NC(=O)[C@H](CCC(N)=O)NC(=O)[C@H](CC(C)C)NC(=O)[C@H](CC(C)C)NC(=O)[C@@H](NC(=O)[C@H](C)N)CSC3)C(=O)N2CCC[C@H]2C(=O)N[C@@H](Cc2ccc(O)cc2)C(=O)N[C@@H](CO)C(=O)N[C@@H]([C@@H](C)O)C(=O)N[C@@H](Cc2c[nH]cn2)C(=O)N[C@@H](C)C(=O)N1 [P8-L-(S6R, R15A)-C10] (H-ACLLQRLLCPYSTHACG-NHDecyl; linker 2-9-16 via TBMB; N-terminus assumed) | significant accumulation
